Assay results taken from ChEMBL document CHEMBL2094260, “Malaria Box Tuberculosis Screening Data”.

Key:
[1] = test system: Mycobacterium tuberculosis; test: MMV: Screen against Mtb, single point, replicating, at 25uM; type: functional
[2] = test system: Mycobacterium tuberculosis; test: MMV: Screen against Mtb, single point, non replicating, at 25uM; type: functional

Compound | inhibition at 25 µM [1] [%] | inhibition at 25 µM [2] [%]
COc1ccc2c(c1)C1(Nc3ccccc3-c3nc4ccccc4n31)C(=O)N2 (configuration not stated) | 0.517 | 10.8
COc1cccc(Cn2c(Oc3ccccc3)nc3c2c(=O)n(C)c(=O)n3C)c1 | 3.71 | -1.06
CCOc1cc(CNC(C)C(O)c2ccccc2)cc(Cl)c1OCC (configuration not stated) | 18.6 | 9.76
CCOc1c(Cl)cc(CNCC(O)c2ccccc2)cc1OC (configuration not stated) | 11.9 | 6.97
OC(CNCC1CCCO1)Cn1c2ccc(Cl)cc2c2cc(Cl)ccc21 (configuration not stated) | 1.28 | 20.4
CCOc1ccccc1CN1CCc2nc3cc(C(C)(C)C)nn3c(O)c2C1 | 13.9 | 1.04
CN1CCN(c2ncnc3c2[nH]c2ccc(Cl)cc23)CC1 | 23.9 | 1.91
CC1(c2ccccc2)Nc2ccccc2-c2nc3ccccc3n21 (configuration not stated) | 8.87 | 12
COc1cccc(C2(C)Nc3ccccc3-c3nc4ccccc4n32)c1 (configuration not stated) | 14.9 | 8.19
CC(C)CNC(=O)c1c(N)n(CCc2ccccc2F)c2nc3ccccc3nc12 | 14.8 | 2.78
O=C1c2ccccc2-c2nnc(-c3ccc(Br)cc3)cc21 | 9.33 | 1.49
CN(C)CCNc1cc(-c2ccccc2)nc2ccccc12 | 6.89 | 6.45
COc1ccc2nc(C)cc(Nc3ccc(Cl)cc3)c2c1 | 41.2 | 7.32
CCC(O)c1ccc(Br)cc1NC(=O)c1cccc(Cl)c1 (configuration not stated) | 13.9 | 14.6
COc1ccc2nc(C)cc(Nc3cccc(O)c3)c2c1 | 7.96 | 8.19
CN(C)CCCNCc1ccc(-c2ccc(F)c(Cl)c2)o1 | 23.9 | 1.91
O=c1nc(C=Cc2ccc(Br)cc2)oc2ccccc12 | 20.6 | -13.3
COc1ccc2nc(N)nc(C)c2c1 | 5.53 | -10.5
Cc1sc2ncnc(Sc3nc4ccccc4[nH]3)c2c1C | 14.9 | 22.5
COc1ccc(C(=O)NC(c2ccc(Cl)cc2Cl)c2cc(Cl)c3cccnc3c2O)cc1 (configuration not stated) | 3.06 | -4.19
CCC(=O)Nc1nnc(Cc2ccc(OC)c(OC)c2)s1 | -1.3 | 1.56

Compound | inhibition at 25 µM [1] [%] | inhibition at 25 µM [2] [%]
CC(=O)Nc1nnc(SCc2c(C)cc(C(C)(C)C)cc2C)s1 | 3.55 | 19.7
O=C(Nc1ccc(CN2CCOCC2)cc1)c1ccc(-c2cc(Cl)ccc2Cl)o1 | 17.1 | 14.5
COc1cccc(C(=O)Nc2ccc(-c3nc4ccccc4[nH]3)cc2)c1 | 7.2 | 0.862
COCCn1c(C)nc2ccccc2c1=O | 6.59 | 13.6
O=C(Nc1cccc(-c2nc3ccccc3[nH]2)c1)c1cccc(NC(=O)c2ccco2)c1 | 21.2 | 46.1
O=C(NC1CCN(Cc2ccccc2)CC1)c1cc(-c2cccnc2)nc2ccc(Cl)cc12 | 14.3 | 18
CCN(Cc1ccccc1)C1CCN(Cc2cc(Br)ccc2O)CC1 | 16.8 | 12.7
CCOC(=O)c1cnc2ccc(Cl)cc2c1NCCCN(C)C | 2.59 | -0.993
CCOc1ccccc1NC(=O)CN1CCN(C(=O)c2ccco2)CC1 | 23.1 | -0.186
O=C1c2ccccc2C2=Nc3ccccc3SC(c3cccc(F)c3)C12 (configuration not stated) | 7.45 | -5.43
COc1ccc(-c2nonc2NC(=O)c2cccc(Cl)c2)cc1OC | 9.93 | 15.7
Cc1cc(NC(=O)c2ccc(-c3ccccc3)cc2)no1 | 8.72 | 13.8
CCOc1cc2c(cc1OCC)C(c1cc(C)c(O)c(C)c1)NCC2 (configuration not stated) | 10.8 | 11.5
O=C1CC(O)(C(F)(F)C(F)(F)F)Oc2ccccc21 (configuration not stated) | 13 | 39.1
COc1cc(SC)ccc1C(=O)N1CCCC(C)C1 (configuration not stated) | 17.4 | 8.89
CC(C)c1ccc(CNCC(O)c2ccccc2)cc1 (configuration not stated) | 30.9 | 11.7
CC(C)(C)c1ccc(C(=O)Nc2c3c(nn2-c2cccc(Cl)c2)CSC3)cc1 | -1.02 | -4.72
CCOc1cc2c(cc1OCC)C(c1cc(Cl)c(O)c(OCC)c1)NCC2 (configuration not stated) | -12.2 | -14
COc1ccc(N2CCN(C(CNC(=O)CC(C)(C)C)c3ccc4c(c3)OCO4)CC2)cc1 (configuration not stated) | 0.0784 | -8.45
Oc1ccc(Br)cc1CN1CCN(Cc2cccc(F)c2)CC1 | 28.5 | -1.58
O=c1nc(C=Cc2ccc(Cl)cc2)oc2ccccc12 | 46.8 | 7.84

Compound | inhibition at 25 µM [1] [%] | inhibition at 25 µM [2] [%]
O=C(NCc1ccco1)C1CCN(S(=O)(=O)c2ccc(Br)cc2)CC1 | 13 | 10.5
CN(C)c1ccc(N2C(N)=NC(N)=NC2(C)C)cc1 | 2.64 | 1.21
COc1ccc(CN2CCN(Cc3ccccc3)CC2)c(O)c1 | 0.392 | -5.78
COc1cc2c(cc1OC)C1=NNC(=O)C1=NC(C)(C)C2 | 11.3 | 26.7
Oc1c(CN2CCN(c3ccccc3F)CC2)cc(Br)c2cccnc12 | 21.8 | 30.2
Oc1c2c(nc3cc(-c4ccccc4)nn13)CCCC2 | 19.8 | 10.3
CCCCc1c(C)nc2c(OC)cccc2c1O | 26.3 | 6.62
OC1CCCCC1C1(NC(=S)Nc2ccccc2)CCCCC1 (configuration not stated) | 7.76 | 13.9
OC1=C2C(=Nc3ccccc3SC2c2ccc(Br)cc2)c2ccccc21 (configuration not stated) | -4.78 | 0.604
CCOC(=O)C1CCN(C(=O)CN2C(=O)c3ccccc3C2c2c[nH]c3ccccc23)CC1 (configuration not stated) | 4.16 | 8.89
CCOc1ccc(CCNC(=O)c2cccs2)cc1OCC | 30 | 15
COc1ccc(C(=O)C2CC2c2ccc(Cl)cc2)cc1 (configuration not stated) | 17.5 | -5.07
Cc1cc(N2CCN(C3CCCC3)CC2)n2c(nc3ccccc32)c1C#N | 7.81 | 11.5
CCCCOc1ccc(C(=O)Nc2cc(C)on2)cc1 | 23.1 | 15
CCc1ccc(Nc2cc(C)nc3nc(C)nn23)cc1 | 11.4 | 9.06
CCN(CC)S(=O)(=O)c1ccc(-c2csc(Nc3ccc(C)c(C)c3)n2)cc1 | 6.89 | 14.1
CCN1CCN(c2c(C(=O)c3ccccc3)cnc3cc(OC)c(OC)cc23)CC1 | 5.25 | 1.14
Cc1c(C)n(CC(O)CNC2CCCCC2C)c2ccccc12 (configuration not stated) | 24.7 | 7.84
CCCCN(CCCC)S(=O)(=O)c1ccc(NC(=O)c2ccco2)cc1 | 8.56 | 6.97
